Assay results reported in ChEMBL document CHEMBL1154376, “Anomalous microbial transformations on the taxane ring of 10-DAB by a strain of the fungus Curvularia lunata: transbenzoylation, transacetylation, and opening of the oxetane ring” (J Nat Prod, 2009).

What follows are compounds tested on NCI-H460 (assay: Cytotoxicity against human H460 cells).
Type: functional, cell-based
For `C=C1[C@H]2C[C@@]3(OC(=O)c4ccccc4)C(=O)[C@@H]4[C@]5(OC(C)=O)CO[C@@H]5C[C@H](O)[C@@]4(C)[C@H](O)[C@@](O)(O2)[C@@H]1C3(C)C`, the IC50 was 51.5 µM. In the case of `C=C1[C@H]2C[C@@]3(OC(=O)c4ccccc4)C(=O)[C@@H]4[C@](O)(COC(C)=O)[C@@H](O)C[C@H](O)[C@@]4(C)[C@H](O)[C@@](O)(O2)[C@@H]1C3(C)C`, the IC50 is reported as 95.2 µM. `CC(=O)O[C@@]12CO[C@@H]1C[C@@H](O)[C@@]1(C)C(=O)C(=O)C3=C(C)[C@@H](O)C[C@@](O)([C@@H](OC(=O)c4ccccc4)[C@H]21)C3(C)C` was tested, and the IC50 was 60 µM. With `CC(=O)O[C@@]12CO[C@@H]1C[C@H](O)[C@@]1(C)C(=O)[C@H](O)C3=C(C)[C@@H](O)C[C@@](O)([C@@H](OC(=O)c4ccccc4)[C@H]21)C3(C)C` the IC50 was 3.1 µM.
